From PubChem BioAssay AID1996
Values after ≈ are worked out from the molar mass of the structure shown.

Conditions: buffer; pH 7.4; 200.0 µM

Row | SMILES | solubility kinetic
1 | Cc1c(C(=O)NC2CCC(C)CC2)oc2ccccc12 (centres undefined) | 0.7 µg/mL (≈ 2.58 µM)
2 | O=S(=O)(c1ccccc1)c1ccc(N2CCCCCC2)cc1 | < 0.7 µg/mL
3 | COC(=O)COc1cccc2c(=O)n(CC(=O)N3CCC(C)CC3)ccc12 | > 55.9 µg/mL
4 | Cc1ccc(/C=C(\C#N)C(=O)NCc2ccco2)o1 | 9 µg/mL (≈ 35.1 µM)
5 | Br.N#Cc1ccc(CSC2=NCCN2)cc1 | > 44.7 µg/mL
6 | COc1ccc(S(=O)(=O)Nc2cc(C)on2)cc1 | 36.1 µg/mL (≈ 135 µM)
7 | CN1C(=O)CN=C(c2ccccc2Cl)c2cc(Br)ccc21 | 51.9 µg/mL (≈ 143 µM)
8 | Cc1cnc(C(=O)OCc2cc(=O)n3c(C)cccc3n2)cn1 | > 46.5 µg/mL
9 | O=C(COc1ccccc1)Nc1ccc(Cl)cn1 | 12.7 µg/mL (≈ 48.3 µM)
10 | Cl.O=C(OCCN1CCOCC1)c1cccc(F)c1 | > 43.5 µg/mL
11 | O=C(O)COCC(=O)NCc1nc(-c2ccc(C(F)(F)F)cc2)no1 | > 53.9 µg/mL
12 | CCc1ccccc1N1CC(C(=O)Nc2nccs2)CC1=O (centres undefined) | 45.2 µg/mL (≈ 143 µM)
13 | C=CCN(CC=C)C(=S)Nc1ccc(OC)c(OC)c1 | > 43.9 µg/mL
14 | CSCC[C@H](NC(=O)C1CCN(S(=O)(=O)c2ccc(C)cc2C)CC1)c1nc2ccccc2[nH]1 | 3.3 µg/mL (≈ 6.59 µM)
15 | Cc1ccc2nc3c(cc(C#N)c(=N)n3Cc3cccnc3)c(=O)n2c1 | 2.1 µg/mL (≈ 6.13 µM)
16 | CCOc1nc(-c2ccccc2)c2cc(Br)ccc2n1 | < 0.4 µg/mL
17 | Oc1c(Cl)cc(Cl)cc1CNc1nc2ccccc2[nH]1 | 3.5 µg/mL (≈ 11.4 µM)
18 | O=C(CN1c2cccc3cccc(c23)S1(=O)=O)Nc1ccc(F)c(F)c1F | 2.9 µg/mL (≈ 7.39 µM)
19 | NC(=O)NC(Cc1ccccc1)C(=O)NNC(=O)COc1ccccc1Cl (centres undefined) | > 58.6 µg/mL
20 | O=S(=O)(NC1Cc2ccccc2C1)c1ccccc1 | > 41 µg/mL
21 | Cc1ccc(C(=O)NCCNC(=O)c2ccccc2)cc1 | > 42.4 µg/mL
22 | COc1ccc(S(=O)(=O)/C(C#N)=C/Nc2cccc(F)c2)cc1 | < 0.4 µg/mL
23 | CC(=O)c1cccc(NC(=O)COc2ccc3oc(=O)cc(C)c3c2)c1 | 1.4 µg/mL (≈ 3.98 µM)
24 | OCCC1CN(C/C=C/c2ccco2)CCN1Cc1ccccc1 (centres undefined) | 40 µg/mL (≈ 123 µM)

Row | SMILES | solubility kinetic
25 | C=CCn1c([O-])c(C(C)=O)c(=O)[nH]c1=O.C[NH+](C)C | > 40.4 µg/mL
26 | Cl.c1ccc(C2CNCCc3ccccc32)cc1 (centres undefined) | > 39 µg/mL
27 | COC(=O)[C@H](CCSC)NC(=O)c1cccnc1SC | 38.8 µg/mL (≈ 123 µM)
28 | CCc1nnc(NC(=O)CN2CC(C)OC(C)C2)s1 (centres undefined) | > 42.7 µg/mL
29 | O=c1[nH]c(=S)n(C2CC2)c(O)c1C=NCc1ccc(F)cc1 | 0.9 µg/mL (≈ 2.82 µM)
30 | O=C(NC(=S)Nc1ccc(F)c(Cl)c1)C1CC1 | 2.3 µg/mL (≈ 8.43 µM)
31 | Cc1ccc(-c2noc(N=O)c2NO)cc1 | 31.5 µg/mL (≈ 144 µM)
32 | Cc1ccc2cc(CCl)c(Cl)nc2c1 | 3.7 µg/mL (≈ 16.4 µM)
33 | CC1(C)CC(=O)C=C(NCc2ccc(C(=O)O)cc2)C1 | 37.6 µg/mL (≈ 138 µM)
34 | CCOc1ncccc1C(=O)OCC(=O)c1ccccc1 | 39.9 µg/mL (≈ 140 µM)
35 | C[C@@H](C(=O)Nc1nccs1)N1C(=O)C2CC=CCC2C1=O (some centres undefined) | 42.8 µg/mL (≈ 140 µM)
36 | COc1ccc(OC)c(NC(=O)Cn2cc(C=O)c3ccccc32)c1 | 2.5 µg/mL (≈ 7.39 µM)
37 | O=C1CCCC2=C1C(c1ccncc1)n1c(nc3ccccc31)N2 (centres undefined) | 6.7 µg/mL (≈ 21.2 µM)
38 | NC(=O)c1cc(-c2csc(-c3cccnc3)n2)ccc1O | 5.2 µg/mL (≈ 17.5 µM)
39 | O=C(CSc1nccn1-c1ccccc1)NO | 32.1 µg/mL (≈ 129 µM)
40 | O=[N+]([O-])c1cccc(NC(=S)N2CCc3ccccc3C2)c1 | 1.3 µg/mL (≈ 4.15 µM)
41 | CCC(C(=O)Nc1ccc(N2CCOCC2)c(S(=O)(=O)Nc2ccccc2OC)c1)c1ccccc1 (centres undefined) | 7.4 µg/mL (≈ 14.5 µM)
42 | CC(=O)N1CCOCCOCCOCC1 | > 32.6 µg/mL
43 | COc1ccc(NC(=O)C2C3CCC(O3)C2C(=O)O)c(OC)c1 (centres undefined) | > 48.2 µg/mL
44 | Cc1ccc(-c2csc(NS(=O)(=O)c3cccc(F)c3)n2)o1 | > 50.8 µg/mL
45 | CCN(CC)CCn1c(-c2ccc(C)cc2)nc(=S)c2c1CC(C)(C)OC2 | > 57.8 µg/mL
46 | Cc1ccccc1OCCn1cc(C(=O)O)c2ccccc21 | > 44.3 µg/mL
47 | CCCC(=O)NC(c1ccc(C)cc1)c1ccc2cccnc2c1O (centres undefined) | 1.2 µg/mL (≈ 3.59 µM)
48 | CSc1ccccc1NC(=O)COC(=O)Cc1ccsc1 | > 48.2 µg/mL

Row | SMILES | solubility kinetic
49 | Cl.c1ccc(CNCc2ccco2)cc1 | 33.5 µg/mL
50 | CCCOC(=O)c1ccc(NC(=O)Cc2cccs2)cc1 | 24 µg/mL (≈ 79.1 µM)
51 | Cc1cc(C(=O)COc2ccc([N+](=O)[O-])cc2)c(C)n1C1CC1 | 2.2 µg/mL (≈ 7 µM)
52 | O=C(Nc1cccc(NC(=O)c2ccccc2[N+](=O)[O-])c1)c1ccccc1Cl | 1.3 µg/mL (≈ 3.28 µM)
53 | CCOc1ccccc1N=Cc1c(O)c2ccccc2oc1=O | < 0.7 µg/mL
54 | CNC(=O)Oc1ccc2c(c1)[C@]1(C)CCN(C)C1N2C.O=C(O)c1ccccc1O (some centres undefined) | > 62 µg/mL
55 | O=C(COc1ccccc1)N1CCCCCCC1 | > 37.1 µg/mL
56 | CN1C(=O)CC(c2ccccc2)Nc2ccccc21.Cl (centres undefined) | > 43.3 µg/mL
57 | Cc1cc(F)ccc1NC(=O)C1CSC2(C)CCC(=O)N12 (centres undefined) | > 46.3 µg/mL
58 | CCOC(=O)c1sc(NC(=O)CN2CCN(c3ccc(OC)cc3)CC2)nc1C | 15.3 µg/mL (≈ 36.6 µM)
59 | COc1cc(OC)cc(C(=O)N[C@H](C(=O)OCC(=O)c2ccc(C)c([N+](=O)[O-])c2)C(C)C)c1 | 28.8 µg/mL (≈ 62.8 µM)
60 | CC1=C/C(=C\C=C(C#N)C#N)N(C)c2ccccc21 | 0.8 µg/mL (≈ 3.23 µM)
61 | COc1ccc([C@@H](O)[C@@H](N)c2ccccc2)cc1.Cl | 41.7 µg/mL
62 | O=C(COC(=O)c1ccccc1Cl)NCc1ccco1 | > 44.1 µg/mL
63 | Cc1ccc(-c2nc(N)sc2C)cc1 | 30.2 µg/mL (≈ 148 µM)
64 | CN(C(=O)Nc1ccccc1)C1CCCc2ccccc21 (centres undefined) | > 42.1 µg/mL
65 | Cc1nc(NC(=O)COC(=O)C2CC2C)c(Cl)cc1Cl (centres undefined) | > 47.6 µg/mL
66 | CCOC(=O)C1C(c2ccccc2)NC(=S)NC1(C)O (centres undefined) | 41.6 µg/mL (≈ 141 µM)
67 | CN=C(Nc1cccnc1)c1cccc(C(F)(F)F)c1 | > 41.9 µg/mL
68 | CCOC(=O)CN1C(=O)C2(OCCCO2)c2cc(Br)ccc21 | 31.5 µg/mL (≈ 85.1 µM)
69 | CN(CC(=O)Nc1ccc(F)cc1[N+](=O)[O-])C1CCS(=O)(=O)C1 (centres undefined) | > 51.8 µg/mL
70 | N#Cc1ccccc1COC(=O)c1ccc2c(c1)OCO2 | 5.2 µg/mL (≈ 18.5 µM)
71 | COc1ccc(N2C(=O)Cc3c2nc(N)c(C#N)c3N)cc1 | 13 µg/mL (≈ 44 µM)
72 | O=C(Nc1ccc(N2CCOCC2)cc1)c1ccc([N+](=O)[O-])o1 | 13.2 µg/mL (≈ 41.6 µM)

Row | SMILES | solubility kinetic
73 | Cc1c([N+](=O)[O-])c(C(=O)NC2CCCC2)nn1C | > 37.8 µg/mL
74 | O=C(Cc1ccccc1)Nc1ccc(NC(=O)c2ccco2)cc1Cl | 2.4 µg/mL (≈ 6.76 µM)
75 | CC(C)(C)c1ccc(OCC(O)CN2CCCC2)cc1.Cl (centres undefined) | > 47.1 µg/mL
76 | O=C(COC(=O)c1ccc([N+](=O)[O-])cc1)Nc1ccccc1C(=O)NC1CC1 | 8.5 µg/mL (≈ 22.2 µM)
77 | O=C(NCCCCc1ccccc1)c1ccc(Br)cc1 | < 0.7 µg/mL
78 | N/C(CN1CCCCC1)=N\S(=O)(=O)c1cc(Cl)cc(Cl)c1 | 3.7 µg/mL (≈ 10.6 µM)
79 | O=C(CN1C(=O)NC2(CCOc3ccccc32)C1=O)c1ccc(Cl)cc1 (centres undefined) | 1.3 µg/mL (≈ 3.51 µM)
80 | Cc1ccc(CNC(=O)N2CCN(S(=O)(=O)c3ccccc3)CC2)cc1 | 8.3 µg/mL (≈ 22.2 µM)
81 | Cc1ccccc1C(=O)Nc1cccc(NC(=O)c2ccc(F)cc2)c1 | 1.8 µg/mL (≈ 5.17 µM)
82 | COc1cccc(NC(=O)NC2CCCCCCC2)c1 | 5.2 µg/mL (≈ 18.8 µM)
83 | CCOC(=O)c1cnc(Cc2ccccc2)[nH]c1=O | 37.3 µg/mL (≈ 144 µM)
84 | O=C(Nc1ccc(NC(=O)C2CC2)nc1)c1ccccc1F | 8.1 µg/mL (≈ 27.1 µM)
85 | Cc1ccc(C)c(N(CC(=O)NC2CCCC2)S(=O)(=O)c2ccccc2)c1 | < 0.4 µg/mL
86 | CC1CC(C)CN(C(=O)CCn2c(=O)oc3ccccc32)C1 (centres undefined) | > 45.4 µg/mL
87 | N#Cc1ccccc1OCC(=O)OCC(=O)c1c[nH]c2ccccc12 | 6.4 µg/mL (≈ 19.1 µM)
88 | Cc1cc(C)c2c(=O)cc(C(=O)NCc3ccccc3)oc2c1 | < 0.7 µg/mL
89 | CNC(=O)CSc1nnc(-c2ccccc2)n1C | > 39.3 µg/mL
90 | O=C(NCC(=O)N1CCCCCCC1)c1ccco1 | > 39.6 µg/mL
91 | CCCC(=O)Nc1nnc(SCC(=O)N2CCCCC2)s1 | > 49.3 µg/mL
92 | O=C(CSc1nc(O)c(Cc2ccccc2)c(=O)[nH]1)N1CCOCC1 | 40.2 µg/mL (≈ 111 µM)
93 | O=C(Nc1nccs1)c1cn2ccccc2n1 | 36.2 µg/mL (≈ 148 µM)
94 | Cc1ccc(S(=O)(=O)N2CCCCC2)cc1NC(=O)COC(=O)c1cccn1C | 9 µg/mL (≈ 21.5 µM)
95 | Cn1cnc([N+](=O)[O-])c1Sc1ccc(C(C)(C)C)cc1 | 6.1 µg/mL (≈ 20.9 µM)
96 | Cc1ccnc(NC(=O)CNC(=O)c2ccco2)c1 | > 38.9 µg/mL

Row | SMILES | solubility kinetic
97 | CC(OC(=O)CCCC(=O)Nc1ccc(F)cc1)C(=O)c1ccccc1 (centres undefined) | 44.7 µg/mL (≈ 125 µM)
98 | O=C(Nc1cc2c3c(c1)CC(=O)N3CCC2)c1ccc(Br)cc1 | 10.3 µg/mL (≈ 27.7 µM)
99 | Cc1ccccc1CC(=O)NCCN1CCOCC1 | > 39.4 µg/mL
100 | CCOC(=O)c1sc(=NC(=O)c2c(F)cccc2F)n(C)c1C | 0.9 µg/mL (≈ 2.64 µM)
101 | CC1CCCN(S(=O)(=O)c2cc(C(=O)NCc3ccco3)ccc2Cl)C1 (centres undefined) | 52.6 µg/mL (≈ 133 µM)
102 | C=CCN1C2CCCC1CC(NC(=S)Nc1ccc(Cl)cc1)C2 (centres undefined) | > 52.5 µg/mL
103 | O=C(NCCc1cnc[nH]1)c1ccc(-c2ccccc2)cc1 | 28.2 µg/mL (≈ 96.8 µM)
104 | CCc1ccccc1NC(=O)NCCN1CCCCC1 | > 41.3 µg/mL
105 | Cc1nc2sc(C(=O)c3ccccc3)c(N)c2c(C)c1C | < 0.3 µg/mL
106 | O=C(NCCc1ccccc1)C1CC1 | > 28.4 µg/mL
107 | CCc1noc(C)c1C(=O)OCC(=O)c1ccccc1OC | 4.6 µg/mL (≈ 15.2 µM)
108 | Fc1ccc(Oc2nc(-c3ccccn3)nc3ccccc23)cc1 | 17.3 µg/mL (≈ 54.5 µM)
109 | O=C(NC(=S)N1CCN(c2ccc(O)cc2)CC1)c1ccco1 | > 49.7 µg/mL
110 | O=C(Nc1ccccc1)c1cc(S(=O)(=O)Nc2cccnc2)ccc1Cl | > 58.2 µg/mL
111 | Cc1ccsc1C(=O)Nc1ccccc1N1CCCC1 | 27.6 µg/mL (≈ 96.4 µM)
112 | O=c1cc(OCc2ccccc2)cc[nH]1 | > 30.2 µg/mL
113 | CC(C)C(OC(=O)c1nsc(Cl)c1Cl)C(=O)NCc1ccccc1 (centres undefined) | 10 µg/mL (≈ 25.8 µM)
114 | COc1cc(/C=C/C(=O)O)cc(S(=O)(=O)N2CCCc3ccccc32)c1OC | 45.3 µg/mL (≈ 112 µM)
115 | CCN1CCN(C(=O)c2c(-c3ccccc3)noc2C)CC1 | 40 µg/mL (≈ 134 µM)
116 | C[C@H](NS(=O)(=O)c1ccc(Cl)cc1)C(=O)OCC(=O)N1CCOCC1 | 55.9 µg/mL (≈ 143 µM)
117 | Cc1ccsc1C(=O)OCC(=O)N1CC(C)CC(C)C1 (centres undefined) | > 44.3 µg/mL
118 | Cc1ccc2c(CN(C)Cc3cccc(F)c3)cc(=O)oc2c1 | 2 µg/mL (≈ 6.42 µM)
119 | Cc1ccccc1NC(=S)N(CCN(C)C)C(C)c1cccnc1 (centres undefined) | > 51.4 µg/mL
